Here are results for 2 compounds from ChEMBL document CHEMBL1141342, “Cytotoxic C47-polyacetylene carboxylic acids from a marine sponge Pertrosia sp” (J Nat Prod, 2007).

In the test the test system is P388. The experiment in a line: Cytotoxicity against mouse P388 cells. In kind it is functional, cell-based.

Converted amounts (≈) assume the structure as drawn.

`C#C[C@@H](O)/C=C/CCCCCCC#C[C@H](O)C#C/C=C/CC/C=C\CCCC/C=C\CCCCCCCCCCCCCC/C=C\C#CC(=O)O` [PETROFORMYNIC ACID B]: 0.4 µg/mL (≈ 0.574 µM) corresponded to half-maximal inhibition (IC50). Next, `C#C[C@@H](O)/C=C/CCCCCCC#C[C@H](O)C#C/C=C/CC/C=C\CCCC/C=C\CCCCCCCCCCCCCCCCC#CC(=O)O` [PETROFORMYNIC ACID C]: 0.4 µg/mL (≈ 0.572 µM).
